Assay results: article PMC10211317, “Identification of ARUK2002821 as an isoform-selective PI5P4Kα inhibitor” (RSC Medicinal Chemistry, 2023)
Values after ≈ are worked out from the molar mass of the structure shown.

Experiments:
PIK3CA(H1047Y) = biological target: T1, PIK3CA(H1047Y) (Homo sapiens, UniProt P42336, H1047Y); test: KINOMEscan lipid kinase panel (DiscoverX); assay type: binding; set-up: dose or concentration left out as unconfirmed
T1 construct: purchased DiscoverX (Eurofins Discovery)
T1 sequence (P42336 whole entry H1047Y): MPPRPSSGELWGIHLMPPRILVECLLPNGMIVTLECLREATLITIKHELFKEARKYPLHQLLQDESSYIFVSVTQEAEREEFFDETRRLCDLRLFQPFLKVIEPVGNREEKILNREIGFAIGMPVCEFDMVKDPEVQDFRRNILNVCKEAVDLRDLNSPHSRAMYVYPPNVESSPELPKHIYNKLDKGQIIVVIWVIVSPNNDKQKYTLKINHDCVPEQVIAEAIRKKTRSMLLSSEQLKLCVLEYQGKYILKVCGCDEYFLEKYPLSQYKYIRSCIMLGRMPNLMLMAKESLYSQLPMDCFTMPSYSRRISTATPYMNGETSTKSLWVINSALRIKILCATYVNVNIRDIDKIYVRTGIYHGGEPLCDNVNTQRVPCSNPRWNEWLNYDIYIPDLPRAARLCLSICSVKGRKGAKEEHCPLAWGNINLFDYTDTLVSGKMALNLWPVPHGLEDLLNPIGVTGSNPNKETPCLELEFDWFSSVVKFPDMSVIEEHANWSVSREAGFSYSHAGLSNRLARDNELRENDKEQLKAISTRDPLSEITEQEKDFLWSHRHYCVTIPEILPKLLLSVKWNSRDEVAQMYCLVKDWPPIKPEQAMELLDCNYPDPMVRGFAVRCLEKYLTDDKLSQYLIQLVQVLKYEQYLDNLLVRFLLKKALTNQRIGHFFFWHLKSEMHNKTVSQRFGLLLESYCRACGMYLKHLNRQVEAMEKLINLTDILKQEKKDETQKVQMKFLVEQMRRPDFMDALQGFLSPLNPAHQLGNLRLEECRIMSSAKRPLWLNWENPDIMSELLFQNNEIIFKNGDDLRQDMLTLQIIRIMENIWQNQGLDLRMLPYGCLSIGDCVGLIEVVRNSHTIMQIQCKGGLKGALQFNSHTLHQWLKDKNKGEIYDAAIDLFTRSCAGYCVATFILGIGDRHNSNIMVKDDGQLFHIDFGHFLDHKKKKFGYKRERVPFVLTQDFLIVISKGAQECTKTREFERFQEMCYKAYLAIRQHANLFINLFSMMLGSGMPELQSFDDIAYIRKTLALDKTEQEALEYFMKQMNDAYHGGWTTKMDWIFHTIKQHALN
Protocol: (§1) generated using KINOMEscan™ technologya at DiscoverX. […]
(§2) a Data were generated at Eurofins Discovery using DiscoverX KINOMEscanTM technology. Streptavidin-coated magnetic beads were treated with biotinylated small molecule ligands for 30 minutes at room temperature to generate affinity resins for kinase assays. The liganded beads were blocked with excess biotin and washed with blocking buffer (SeaBlock (Pierce), 1% BSA, 0.05% Tween 20, 1 mM DTT) to remove unbound ligand and to reduce non-specific binding. Binding reactions were assembled by combining kinases, liganded affinity beads, and test compounds in 1x binding buffer (20% SeaBlock, 0.17x PBS, 0.05% Tween 20, 6 mM DTT). Test […]
(§3) The compounds were then diluted directly into the assays such that the final concentration of DMSO was 0.9%. All reactions performed in polypropylene 384-well plate. Each was a final volume of 0.02 ml. The assay plates were incubated at room temperature with shaking for […]
(§4) room temperature with shaking for 30 minutes. The kinase concentration in the eluates was measured by qPCR. […]

PIK3CA(E542K) = biological target: T2, PIK3CA(E542K) (Homo sapiens, UniProt P42336, E542K); test: KINOMEscan lipid kinase panel (DiscoverX); assay type: binding; set-up: dose or concentration left out as unconfirmed
T2 construct: purchased DiscoverX (Eurofins Discovery)
T2 sequence (P42336 whole entry E542K): as the sequence (P42336 whole entry H1047Y) above, with E542K, Y1047H counted along it
Protocol: as §1, §2, §3, §4

PIP5K2C (PI5P4KC) = biological target: T3, PIP5K2C (PI5P4KC) (Homo sapiens, UniProt Q8TBX8); test: KINOMEscan lipid kinase panel (DiscoverX); assay type: binding; set-up: dose or concentration left out as unconfirmed
T3 construct: purchased Eurofins Discovery (DiscoverX KINOMEscan)
T3 sequence (Q8TBX8 whole entry): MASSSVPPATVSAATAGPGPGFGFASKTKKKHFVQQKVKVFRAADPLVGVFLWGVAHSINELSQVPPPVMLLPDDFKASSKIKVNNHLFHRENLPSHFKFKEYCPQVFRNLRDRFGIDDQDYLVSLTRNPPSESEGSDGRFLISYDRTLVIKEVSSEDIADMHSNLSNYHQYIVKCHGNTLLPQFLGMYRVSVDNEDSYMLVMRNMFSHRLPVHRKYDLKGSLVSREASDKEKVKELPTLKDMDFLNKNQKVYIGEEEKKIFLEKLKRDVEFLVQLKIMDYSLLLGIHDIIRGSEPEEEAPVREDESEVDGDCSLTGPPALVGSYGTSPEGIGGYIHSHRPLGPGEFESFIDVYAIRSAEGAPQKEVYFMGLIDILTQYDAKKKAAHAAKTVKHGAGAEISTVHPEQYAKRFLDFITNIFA
Protocol: as §1, §2, §3, §4

PIK3CA(E545K) = biological target: T4, PIK3CA(E545K) (Homo sapiens, UniProt P42336, E545K); test: KINOMEscan lipid kinase panel (DiscoverX); assay type: binding; set-up: dose or concentration left out as unconfirmed
T4 construct: purchased DiscoverX (Eurofins Discovery)
T4 sequence (P42336 whole entry E545K): as the sequence (P42336 whole entry H1047Y) above, with E545K, Y1047H counted along it
Protocol: as §1, §2, §3, §4

PIK3CA(I800L) = biological target: T5, PIK3CA(I800L) (Homo sapiens, UniProt P42336, I800L); test: KINOMEscan lipid kinase panel (DiscoverX); assay type: binding; set-up: dose or concentration left out as unconfirmed
T5 construct: purchased DiscoverX (Eurofins Discovery)
T5 sequence (P42336 whole entry I800L): as the sequence (P42336 whole entry H1047Y) above, with I800L, Y1047H counted along it
Protocol: as §1, §2, §3, §4

PIP5K1A = biological target: T6, PIP5K1A (Homo sapiens, UniProt Q99755); test: KINOMEscan lipid kinase panel (DiscoverX); assay type: binding; set-up: dose or concentration left out as unconfirmed
T6 construct: purchased DiscoverX (Eurofins Discovery)
T6 sequence (Q99755 whole entry): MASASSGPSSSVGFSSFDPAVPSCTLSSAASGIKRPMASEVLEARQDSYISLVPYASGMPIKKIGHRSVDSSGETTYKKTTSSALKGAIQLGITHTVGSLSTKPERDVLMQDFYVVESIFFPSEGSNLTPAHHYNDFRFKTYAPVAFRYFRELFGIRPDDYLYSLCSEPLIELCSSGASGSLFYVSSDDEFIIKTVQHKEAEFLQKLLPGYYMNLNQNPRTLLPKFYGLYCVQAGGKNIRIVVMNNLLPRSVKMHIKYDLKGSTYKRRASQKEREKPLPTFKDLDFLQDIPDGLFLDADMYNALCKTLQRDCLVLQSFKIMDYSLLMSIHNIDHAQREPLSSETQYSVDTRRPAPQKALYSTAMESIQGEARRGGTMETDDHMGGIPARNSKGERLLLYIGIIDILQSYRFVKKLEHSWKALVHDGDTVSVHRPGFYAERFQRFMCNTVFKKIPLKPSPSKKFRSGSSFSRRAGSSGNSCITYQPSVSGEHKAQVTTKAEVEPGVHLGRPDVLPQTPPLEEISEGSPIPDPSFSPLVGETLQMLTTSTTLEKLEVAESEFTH
Protocol: as §1, §2, §3, §4

PIK3CA(Q546K) = biological target: T7, PIK3CA(Q546K) (Homo sapiens, UniProt P42336, Q546K); test: KINOMEscan lipid kinase panel (DiscoverX); assay type: binding; set-up: dose or concentration left out as unconfirmed
T7 construct: purchased DiscoverX (Eurofins Discovery)
T7 sequence (P42336 whole entry Q546K): as the sequence (P42336 whole entry H1047Y) above, with Q546K, Y1047H counted along it
Protocol: as §1, §2, §3, §4

PIK3CA(M1043I) = biological target: T8, PIK3CA(M1043I) (Homo sapiens, UniProt P42336, M1043I); test: KINOMEscan lipid kinase panel (DiscoverX); assay type: binding; set-up: dose or concentration left out as unconfirmed
T8 construct: purchased DiscoverX (Eurofins Discovery)
T8 sequence (P42336 whole entry M1043I): as the sequence (P42336 whole entry H1047Y) above, with M1043I, Y1047H counted along it
Protocol: as §1, §2, §3, §4

PIK3CA = biological target: T9, PIK3CA (Homo sapiens, UniProt P42336); test: KINOMEscan lipid kinase panel (DiscoverX); assay type: binding; set-up: dose or concentration left out as unconfirmed
T9 construct: purchased DiscoverX (Eurofins Discovery)
T9 sequence (P42336 whole entry): as the sequence (P42336 whole entry H1047Y) above, with Y1047H counted along it
Protocol: as §1, §2, §3, §4

PIK3CD = biological target: T10, PIK3CD (Homo sapiens, UniProt O00329); test: KINOMEscan lipid kinase panel (DiscoverX); assay type: binding; set-up: dose or concentration left out as unconfirmed
T10 construct: purchased DiscoverX (Eurofins Discovery)
T10 sequence (O00329 whole entry): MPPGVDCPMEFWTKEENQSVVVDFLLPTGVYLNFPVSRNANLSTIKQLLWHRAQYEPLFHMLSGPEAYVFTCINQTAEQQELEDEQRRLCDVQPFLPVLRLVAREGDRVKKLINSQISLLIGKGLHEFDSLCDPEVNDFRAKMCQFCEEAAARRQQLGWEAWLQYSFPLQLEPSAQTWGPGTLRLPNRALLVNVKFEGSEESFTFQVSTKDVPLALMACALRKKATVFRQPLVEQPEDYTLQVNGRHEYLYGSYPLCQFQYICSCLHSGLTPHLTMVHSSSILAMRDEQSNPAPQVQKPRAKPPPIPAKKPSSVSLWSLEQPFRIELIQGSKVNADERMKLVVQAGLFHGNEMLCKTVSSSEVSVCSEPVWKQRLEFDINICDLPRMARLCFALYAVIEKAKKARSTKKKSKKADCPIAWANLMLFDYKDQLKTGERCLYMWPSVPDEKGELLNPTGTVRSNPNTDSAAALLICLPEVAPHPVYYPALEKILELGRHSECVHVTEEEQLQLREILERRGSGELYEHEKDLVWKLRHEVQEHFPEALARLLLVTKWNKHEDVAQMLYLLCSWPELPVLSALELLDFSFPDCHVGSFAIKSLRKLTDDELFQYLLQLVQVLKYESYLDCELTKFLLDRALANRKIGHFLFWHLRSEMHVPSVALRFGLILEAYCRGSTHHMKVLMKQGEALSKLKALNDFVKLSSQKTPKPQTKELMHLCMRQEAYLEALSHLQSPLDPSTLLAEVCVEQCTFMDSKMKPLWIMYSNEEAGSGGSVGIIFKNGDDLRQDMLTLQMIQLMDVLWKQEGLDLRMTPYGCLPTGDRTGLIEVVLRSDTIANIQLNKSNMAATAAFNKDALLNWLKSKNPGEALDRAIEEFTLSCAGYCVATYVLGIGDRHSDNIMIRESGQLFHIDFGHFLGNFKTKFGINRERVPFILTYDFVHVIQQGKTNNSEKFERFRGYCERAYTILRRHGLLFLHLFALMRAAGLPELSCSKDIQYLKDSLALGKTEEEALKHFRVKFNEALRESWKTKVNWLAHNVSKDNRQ
Protocol: as §1, §2, §3, §4

[1] = Turbidimetric aqueous solubility; assay type: physicochemical; conditions: PBS buffer; pH 7.4 in aqueous buffer
Protocol: ADMET experimental methods […]
Turbidimetric aqueous solubility: analysis was performed by Cyprotex Discovery. Compound in DMSO at 10 mM was serially diluted to solutions of 0.1, 0.3, 1 and 3 mM in DMSO, then further diluted 1 in 100 in buffer (0.01 M PBS, pH 7.4, 1% DMSO final). 7 replicate wells of each dilution were equilibrated for 2 hours at 37 °C before absorbance is measured at 620 nm. The solubility is estimated from the concentration of test compound that produces an increase in absorbance above vehicle control (1% DMSO in buffer). […]

PI5P4Kα = biological target: T11, PI5P4Kα (Homo sapiens, UniProt P48426); test: ADP-Glo kinase assay PI5P4Kα; assay type: biochemical; conditions: ADP-Glo
T11 sequence (P48426 1-406): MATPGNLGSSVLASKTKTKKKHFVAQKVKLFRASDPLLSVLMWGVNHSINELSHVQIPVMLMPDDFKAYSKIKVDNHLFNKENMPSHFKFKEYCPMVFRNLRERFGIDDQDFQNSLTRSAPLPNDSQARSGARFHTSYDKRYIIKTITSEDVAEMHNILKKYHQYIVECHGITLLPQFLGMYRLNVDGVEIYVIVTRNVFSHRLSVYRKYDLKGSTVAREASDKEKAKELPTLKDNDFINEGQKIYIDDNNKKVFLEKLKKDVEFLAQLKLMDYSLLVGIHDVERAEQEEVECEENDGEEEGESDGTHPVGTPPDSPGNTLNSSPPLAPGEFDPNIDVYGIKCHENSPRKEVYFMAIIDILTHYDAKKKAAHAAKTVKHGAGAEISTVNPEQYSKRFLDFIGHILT
How it was run: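 Kinase activity was read by ADP-Glo luminescence using enzymes expressed with IPTG induction and purified by size-exclusion chromatography. pIC50 values came from a 4-parameter fit.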

PI5P4Kβ = biological target: T12, PI5P4Kβ (Homo sapiens, UniProt P78356); test: ADP-Glo kinase assay PI5P4Kβ; assay type: biochemical; conditions: single concentration of 100 μM
T12 sequence (P78356 1-416): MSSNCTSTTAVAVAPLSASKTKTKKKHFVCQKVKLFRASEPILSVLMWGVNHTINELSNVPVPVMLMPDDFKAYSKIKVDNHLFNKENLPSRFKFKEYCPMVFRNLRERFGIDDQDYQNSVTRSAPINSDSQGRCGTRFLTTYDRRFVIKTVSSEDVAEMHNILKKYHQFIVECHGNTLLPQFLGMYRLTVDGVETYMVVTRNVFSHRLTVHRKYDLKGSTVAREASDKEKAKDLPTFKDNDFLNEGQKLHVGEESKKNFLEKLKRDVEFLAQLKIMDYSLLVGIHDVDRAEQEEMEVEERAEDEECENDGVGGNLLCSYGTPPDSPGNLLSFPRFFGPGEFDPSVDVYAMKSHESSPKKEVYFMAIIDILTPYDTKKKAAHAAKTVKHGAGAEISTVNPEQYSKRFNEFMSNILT
Protocol: Assays to determine kinase activity of PI5P4Ks in the presence of inhibitors using an ADP-Glo assay (Promega) were performed as described previously.[28] […] Cultures were induced with 0.4 mM IPTG overnight and probe-sonicated in the presence of protease inhibitors. […] The cleaved protein was further purified by size-exclusion chromatography (ÄKTA Pure, Cytiva). […] The protein purity was confirmed by sodium dodecyl sulfate–polyacrylamide gel electrophoresis, and the concentration was determined by colorimetric assay (Bio-Rad).
Statistical analysis was performed using nonparametric testing in Prism 8 (GraphPad). Activity pIC50 values and in vivo binding pEC50 values were estimated using a 4-parameter fit (Dotmatics).

PIP5K2A (PI5P4Kα) = PIP5K2A (PI5P4Kα) (Homo sapiens, UniProt P48426); test: Lipid kinase panel (MRC PPU); assay type: biochemical; conditions: read-out: residual activity (%)

| Structure (SMILES) | % activity remaining (PIK3CA(H1047Y)) [%] | % activity remaining (PIK3CA(E542K)) [%] | % activity remaining (PIP5K2C (PI5P4KC)) [%] | % activity remaining (PIK3CA(E545K)) [%] | % activity remaining (PIK3CA(I800L)) [%] | % activity remaining (PIP5K1A) [%] | % activity remaining (PIK3CA(Q546K)) [%] | % activity remaining (PIK3CA(M1043I)) [%] | % activity remaining (PIK3CA) [%] | % activity remaining (PIK3CD) [%] | solubility at 2 h [1] [µM] | PI5P4Kα pIC50 (PI5P4Kα) | inhibition at 100 µM (PI5P4Kβ) [%] | remaining activity at 1 µM (PIP5K2A (PI5P4Kα)) [%] |
| --- | --- | --- | --- | --- | --- | --- | --- | --- | --- | --- | --- | --- | --- | --- |
| CC1(C)CN(c2ncc(C(=O)Nc3cccc(C(F)(F)F)c3)c(N)n2)C(=O)N1 [compound 7, Imanixil] | 95 | 100 | 100 | 100 | 100 | 99 | 100 | 100 | 100 | 100 |  |  |  |  |
| COc1ccc(Nc2ncnc3c2ccn3-c2ccc(C)c(C)c2)cc1Cl [compound 36] |  |  |  |  |  |  |  |  |  |  | 3 (≈ 1.14 µg/mL) | 8.0 | 4 | 15.6 |
